“And” between values parts separate entries of the source, which are not always exact repeats. Identical values can stand only once. Inconclusive results and toxic doses are left out. Rule as the data show it: active = T/C of 150% or more; inactive = T/C below 125%.
System: L1210 leukemia ip in BDF1 mice, survival T/C
Experiment: NCI In Vivo Anticancer Drug Screen. Data for tumor model L1210 Leukemia (intraperitoneal) in B6D2F1 (BDF1) mice
Settings: endpoint: mean survival time, higher = longer survival
Method in brief: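 Antitumor effect is assessed in tumor-bearing animals. Survival in the compound arm is compared with a vehicle-dosed control arm and expressed as their quotient.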

[1] = dose: 100.0 mg/kg/injection, schedule: Q01DX001 (ip), vehicle: saline
[2] = dose: 200.0 mg/kg/injection, schedule: Q01DX001 (ip), vehicle: saline
[3] = dose: 400.0 mg/kg/injection, schedule: Q01DX001 (ip), vehicle: saline
[4] = dose: 100.0 mg/kg/injection, schedule: Q01DX001 (ip), vehicle: Klucel (hydroxypropylcellulose) (HPC)
[5] = dose: 100.0 mg/kg/injection, schedule: Q01DX009 (ip), vehicle: Klucel (hydroxypropylcellulose) (HPC)
[6] = dose: 100.0 mg/kg/injection, schedule: Q04DX002 (ip), vehicle: Klucel (hydroxypropylcellulose) (HPC)
[7] = dose: 100.0 mg/kg/injection, schedule: Q04DX003 (ip), vehicle: Klucel (hydroxypropylcellulose) (HPC)
[8] = dose: 200.0 mg/kg/injection, schedule: Q01DX001 (ip), vehicle: Klucel (hydroxypropylcellulose) (HPC)
[9] = dose: 200.0 mg/kg/injection, schedule: Q01DX009 (ip), vehicle: Klucel (hydroxypropylcellulose) (HPC)
[10] = dose: 200.0 mg/kg/injection, schedule: Q04DX002 (ip), vehicle: Klucel (hydroxypropylcellulose) (HPC)
[11] = dose: 200.0 mg/kg/injection, schedule: Q04DX003 (ip), vehicle: Klucel (hydroxypropylcellulose) (HPC)
[12] = dose: 400.0 mg/kg/injection, schedule: Q01DX001 (ip), vehicle: Klucel (hydroxypropylcellulose) (HPC)
[13] = dose: 400.0 mg/kg/injection, schedule: Q01DX009 (ip), vehicle: Klucel (hydroxypropylcellulose) (HPC)
[14] = dose: 400.0 mg/kg/injection, schedule: Q04DX002 (ip), vehicle: Klucel (hydroxypropylcellulose) (HPC)
[15] = dose: 400.0 mg/kg/injection, schedule: Q04DX003 (ip), vehicle: Klucel (hydroxypropylcellulose) (HPC)
[16] = dose: 100.0 mg/kg/injection, schedule: Q04DX002 (ip), vehicle: saline
[17] = dose: 200.0 mg/kg/injection, schedule: Q04DX002 (ip), vehicle: saline
[18] = dose: 400.0 mg/kg/injection, schedule: Q04DX002 (ip), vehicle: saline
[19] = dose: 100.0 mg/kg/injection, schedule: Q01DX001 (ip), vehicle: carboxymethylcellulose (CMC)
[20] = dose: 200.0 mg/kg/injection, schedule: Q01DX001 (ip), vehicle: carboxymethylcellulose (CMC)
[21] = dose: 100.0 mg/kg/injection, schedule: Q04DX003 (ip), vehicle: saline
[22] = dose: 200.0 mg/kg/injection, schedule: Q04DX003 (ip), vehicle: saline
[23] = dose: 400.0 mg/kg/injection, schedule: Q04DX003 (ip), vehicle: saline
[24] = dose: 100.0 mg/kg/injection, schedule: Q01DX009 (ip), vehicle: saline
[25] = dose: 200.0 mg/kg/injection, schedule: Q01DX009 (ip), vehicle: saline

Measured: T/C

C=C1C(=O)OC2CC(C)CCC/C(CO)=C/C(OC(=O)/C(=C/CO)CO)C12 (stereo unspecified)
inactive: dose: 3.75 mg/kg/injection, schedule: Q04DX003 (ip), vehicle: saline 89 % of control | dose: 4.9 mg/kg/injection, schedule: Q01DX009 (ip), vehicle: acetone 93 % of control | dose: 7.5 mg/kg/injection, schedule: Q01DX001 (ip), vehicle: acetone 97 % of control | dose: 7.5 mg/kg/injection, schedule: Q01DX009 (ip), vehicle: acetone 98 % of control | dose: 7.5 mg/kg/injection, schedule: Q04DX003 (ip), vehicle: saline 100 % of control | dose: 11.0 mg/kg/injection, schedule: Q01DX009 (ip), vehicle: acetone 93 % of control | dose: 15.0 mg/kg/injection, schedule: Q01DX001 (ip), vehicle: acetone 103 % of control | dose: 15.0 mg/kg/injection, schedule: Q04DX003 (ip), vehicle: saline 99 % of control

CCCC1C2C(=O)N(c3ccccc3)C(=O)C2ON1c1ccccc1 (stereo unspecified)
inactive: dose: 50.0 mg/kg/injection, schedule: Q01DX001 (ip), vehicle: saline 104 % of control | [1] 98 % of control | [2] 101 % of control | [3] 106 % of control

CCCCCP(=O)(CCCCC)C1CCCC1
inactive: dose: 25.0 mg/kg/injection, schedule: Q04DX002 (ip), vehicle: saline with Tween-80 113 % of control | dose: 50.0 mg/kg/injection, schedule: Q04DX002 (ip), vehicle: saline with Tween-80 100 % of control | dose: 100.0 mg/kg/injection, schedule: Q04DX002 (ip), vehicle: saline with Tween-80 94 % of control and 90 % of control

CCCCCC(C)n1c(C)cc(=O)n1C(C)CCCCC (stereo unspecified)
inactive: dose: 75.0 mg/kg/injection, schedule: Q01DX001 (ip), vehicle: other 92 % of control | dose: 150.0 mg/kg/injection, schedule: Q01DX001 (ip), vehicle: other 97 % of control

O=c1[nH][nH]c(=O)c2c(C3OC(CO)C(O)C3O)[nH]nc12 (stereo unspecified)
inactive: dose: 100.0 mg/kg/injection, schedule: Q01DX005 (ip), vehicle: saline 90 % of control | dose: 200.0 mg/kg/injection, schedule: Q01DX005 (ip), vehicle: saline 97 % of control

Cc1ccc(C)c(OC(=O)Nc2cccc(C(F)(F)F)c2)c1
inactive: [4] 104 % of control | [5] 93 % of control and 110 % of control | [6] 105 % of control | [7] 92 % of control | [8] 98 % of control | [9] 96 % of control and 109 % of control | [10] 99 % of control and 115 % of control | [11] 97 % of control | [12] 100 % of control | [13] 101 % of control and 86 % of control | [14] 101 % of control and 105 % of control | [15] 103 % of control

C#CC(NC(C)(C)CC(C)(C)C)C(C)C (stereo unspecified)
inactive: [16] 109 % of control | [17] 109 % of control | [18] 100 % of control

Cc1c2ccc(=O)cc-2oc2cc(O)ccc12
inactive: [7] 92 % of control | [11] 94 % of control | [15] 87 % of control

COC(=O)C1C2C=CC(C2=C(c2ccccc2)c2ccccc2)C1C(=O)OC (stereo unspecified)
inactive: [4] 98 % of control | [5] 96 % of control | [7] 107 % of control | [8] 97 % of control | [9] 102 % of control | [11] 100 % of control | [12] 92 % of control | [13] 96 % of control | [15] 100 % of control

CCCC#CC(=O)OCCCCC
inactive: [16] 108 % of control | [17] 94 % of control | [18] 105 % of control

CC1(C)CC(Cc2ccccc2)C(=O)O1 (stereo unspecified)
inactive: [7] 93 % of control | [11] 90 % of control | [15] 100 % of control

CCOC(=O)C(C(=O)Nc1ccccc1)=S(C)C
inactive: [6] 94 % of control | [10] 106 % of control | [14] 116 % of control

CC(=O)C=P(c1ccccc1)(c1ccccc1)c1ccccc1
inactive: dose: 50.0 mg/kg/injection, schedule: Q01DX001 (ip), vehicle: carboxymethylcellulose (CMC) 113 % of control | [19] 97 % of control | [20] 101 % of control

Cc1ccc(Cl)cc1NC(=O)C(c1ccccc1)c1ccccc1
inactive: [5] 95 % of control | [7] 90 % of control | [9] 94 % of control | [11] 96 % of control | [13] 95 % of control | [15] 88 % of control

CC(=O)OC1CC2CC1C1C3C=CC(C3)C21 (stereo unspecified)
inactive: [1] 98 % of control | [2] 95 % of control | [3] 106 % of control

O=C(CCN1CC1)OCCCl
inactive: dose: 50.0 mg/kg/injection, schedule: Q01DX001 (ip), vehicle: Klucel (hydroxypropylcellulose) (HPC) 112 % of control | [4] 106 % of control | [8] 101 % of control | [12] 111 % of control

Cc1ccccc1OCCO
inactive: [21] 101 % of control | [22] 97 % of control | [23] 106 % of control

O=C(O)Cc1ccc(C2CCCCC2)cc1
inactive: dose: 37.5 mg/kg/injection, schedule: Q01DX Z (ip), vehicle: carboxymethylcellulose (CMC) 98 % of control | dose: 75.0 mg/kg/injection, schedule: Q01DX Z (ip), vehicle: carboxymethylcellulose (CMC) 95 % of control | dose: 150.0 mg/kg/injection, schedule: Q01DX Z (ip), vehicle: carboxymethylcellulose (CMC) 102 % of control | dose: 300.0 mg/kg/injection, schedule: Q01DX Z (ip), vehicle: carboxymethylcellulose (CMC) 102 % of control

CNCC(SC)c1ccc(O)c(O)c1 (stereo unspecified)
inactive: dose: 50.0 mg/kg/injection, schedule: Q01DX009 (ip), vehicle: saline 103 % of control | [24] 103 % of control | [21] 114 % of control | [25] 121 % of control | [22] 114 % of control

Nc1nc(=O)n(CC(=O)c2ccco2)cc1F
inactive: [24] 100 % of control | [21] 95 % of control | [25] 94 % of control | [22] 97 % of control | [23] 93 % of control

COC(=O)C1C(O)C(C)C(O)C(C)C=C(C)C2=C3C(=C(C)C(=O)c4c(O)c(c(C)c(OC(C)=O)c43)NC(=O)C(C)=C/C=C\C(C)C(O)C(C)C1O)OCO2 (stereo unspecified)
inactive: dose: 20.0 mg/kg/injection, schedule: Q01DX009 (ip), vehicle: saline 105 % of control | dose: 40.0 mg/kg/injection, schedule: Q01DX009 (ip), vehicle: saline 100 % of control | dose: 80.0 mg/kg/injection, schedule: Q01DX009 (ip), vehicle: saline 102 % of control | [6] 96 % of control | dose: 160.0 mg/kg/injection, schedule: Q01DX009 (ip), vehicle: saline 107 % of control | [10] 90 % of control

N/N=C1\c2ccccc2-c2cc([N+](=O)[O-])ccc21
inactive: [19] 104 % of control | [20] 95 % of control

Source: PubChem BioAssay AID248 (DTP/NCI, 2004)
